For test [1], the target named is T1, Cathepsin S (Homo sapiens, UniProt P25774). As to the kind of experiment: Inhibition of human cathepsin S.
Target sequence in this assay (P25774 whole entry): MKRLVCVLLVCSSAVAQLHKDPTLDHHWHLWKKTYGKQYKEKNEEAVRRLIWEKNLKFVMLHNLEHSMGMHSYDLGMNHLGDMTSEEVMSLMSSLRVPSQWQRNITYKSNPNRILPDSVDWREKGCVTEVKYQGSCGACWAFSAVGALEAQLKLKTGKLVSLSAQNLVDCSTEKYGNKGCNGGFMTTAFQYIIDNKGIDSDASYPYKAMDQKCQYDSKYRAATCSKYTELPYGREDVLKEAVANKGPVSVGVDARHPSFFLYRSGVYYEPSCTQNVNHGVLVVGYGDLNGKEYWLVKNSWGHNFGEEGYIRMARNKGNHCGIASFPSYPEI
Another test has as its target Cathepsin B (Homo sapiens, UniProt P07858). As to the kind of experiment: Inhibition of human cathepsin B.
The next test has as its target T2, Cathepsin K (Homo sapiens, UniProt P43235).
T2 sequence (P43235 whole entry): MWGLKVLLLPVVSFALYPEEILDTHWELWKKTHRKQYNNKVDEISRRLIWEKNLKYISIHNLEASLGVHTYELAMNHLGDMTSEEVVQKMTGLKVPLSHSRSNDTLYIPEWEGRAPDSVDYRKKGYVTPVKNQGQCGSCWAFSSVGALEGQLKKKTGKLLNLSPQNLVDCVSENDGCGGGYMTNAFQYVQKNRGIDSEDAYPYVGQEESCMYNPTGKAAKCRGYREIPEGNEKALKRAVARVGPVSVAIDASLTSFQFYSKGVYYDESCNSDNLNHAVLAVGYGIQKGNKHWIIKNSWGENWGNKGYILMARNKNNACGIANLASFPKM
Description: Inhibition of human cathepsin K.

Test [2] concerns the target T3, Procathepsin L (Homo sapiens, UniProt P07711). Description: Inhibition of human cathepsin L.
Target sequence in this assay (P07711 whole entry): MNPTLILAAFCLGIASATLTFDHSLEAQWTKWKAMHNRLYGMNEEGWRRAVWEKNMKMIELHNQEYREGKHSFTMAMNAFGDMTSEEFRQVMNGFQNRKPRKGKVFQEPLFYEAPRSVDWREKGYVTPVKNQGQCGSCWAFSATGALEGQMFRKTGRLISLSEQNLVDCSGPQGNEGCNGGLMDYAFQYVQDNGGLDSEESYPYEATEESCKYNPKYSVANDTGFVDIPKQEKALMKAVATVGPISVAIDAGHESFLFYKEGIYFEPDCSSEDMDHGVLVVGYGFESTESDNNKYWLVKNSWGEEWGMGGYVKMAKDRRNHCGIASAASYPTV
Test [3] relates to PANC-1. Description: Antiproliferative activity against human PANC-1 cells assessed as reduction of cell viability at <25 uM by MTT assay. In kind it is functional.
The test system of test [4] is PANC-1. Description: Antimetastatic activity in human PANC-1 cells assessed as reduction in cell migration at 6.25 to 25 uM incubated for 48 hrs by wound healing assay. In kind it is functional, cell-based. The note with it: dose 6.25-25 µM.
The subject of test [5] is BXPC-3. As to the kind of experiment: Anti-invasive activity in human BXPC-3 cells assessed as reduction in cell invasion at 6.25 to 25 uM incubated for 24 hrs by crystal violet staining based transwell migration assay. In kind it is functional. Conditions: dose 6.25-25 µM.
Test [6] concerns the target T3, Procathepsin L. Description: Inhibition of cathepsin L activity in human PANC-1 cells at 6.25 to 25 uM incubated for 48 hrs by fluorescence-based assay. In kind it is cell-based. The note with it: dose 6.25-25 µM.
Target sequence in this assay (P07711 114-333 limits assumed): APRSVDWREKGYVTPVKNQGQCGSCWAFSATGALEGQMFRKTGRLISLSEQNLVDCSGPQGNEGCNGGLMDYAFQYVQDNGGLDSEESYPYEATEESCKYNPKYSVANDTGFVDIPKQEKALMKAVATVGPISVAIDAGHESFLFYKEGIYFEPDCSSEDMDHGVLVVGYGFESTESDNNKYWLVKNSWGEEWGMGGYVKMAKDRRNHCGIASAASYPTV
In test [7] the test system is PANC-1. As to the kind of experiment: Anti-invasive activity in human PANC-1 cells assessed as reduction in cell invasion at 6.25 to 25 uM incubated for 24 hrs by crystal violet staining based transwell migration assay. In kind it is functional. Conditions: dose 6.25-25 µM.
Test [8] addresses T1, Cathepsin S. As to the kind of experiment: Inhibition of cathepsin S activity in human BXPC-3 cells at 6.25 to 25 uM incubated for 48 hrs by fluorescence-based assay. In kind it is cell-based. Conditions: dose 6.25-25 µM.
Target sequence in this assay (P25774 115-331 limits assumed): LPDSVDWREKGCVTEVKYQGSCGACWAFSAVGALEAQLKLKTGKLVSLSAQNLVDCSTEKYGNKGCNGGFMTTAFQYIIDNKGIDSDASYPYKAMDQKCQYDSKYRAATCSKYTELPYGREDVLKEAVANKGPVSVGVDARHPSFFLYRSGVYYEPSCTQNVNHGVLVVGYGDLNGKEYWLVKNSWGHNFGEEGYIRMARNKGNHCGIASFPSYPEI
The target of test [9] is T1, Cathepsin S. Description: Inhibition of cathepsin S activity in human PANC-1 cells at 6.25 to 25 uM incubated for 48 hrs by fluorescence-based assay. In kind it is cell-based. The note with it: dose 6.25-25 µM.
Target sequence in this assay (P25774 115-331 limits assumed): as above
Test [10] concerns BXPC-3. Description: Antiproliferative activity against human BxPC-3 cells assessed as reduction of cell viability at <25 uM by MTT assay. In kind it is functional. Background: Formazan colour is commonly taken as a measure of viable cells.
Test [11] has as its target T3, Procathepsin L. Description: Inhibition of cathepsin L activity in human BXPC-3 cells at 6.25 to 25 uM incubated for 48 hrs by fluorescence-based assay. In kind it is cell-based. The note with it: dose 6.25-25 µM.
Target sequence in this assay (P07711 114-333 limits assumed): as the sequence (P07711 114-333 limits assumed) above
Test [12] concerns PANC-1. Description: Antiproliferative activity against human PANC-1 cells assessed as effect on cathepsin L mRNA expression level at 6.25 to 25 uM incubated for 48 hrs by RT-PCR analysis. Conditions: dose 6.25-25 µM. In kind it is functional, cell-based.
Test [13] deals with BXPC-3. Description: Antimetastatic activity in human BXPC-3 cells assessed as reduction in cell migration at 6.25 to 25 uM incubated for 48 hrs by wound healing assay. In kind it is functional, cell-based. The note with it: dose 6.25-25 µM.
The subject of test [14] is BXPC-3. Description: Antiproliferative activity against human BxPC-3 cells assessed as effect on cathepsin L mRNA expression level at 6.25 to 25 uM incubated for 48 hrs by RT-PCR analysis. In kind it is functional, cell-based. Conditions: dose 6.25-25 µM.

The source made the active and inactive calls. No cut-off for these calls is given here.

As usually defined, the IC50 is the concentration that inhibits the measured activity by half.

Take `COc1cccc(/C=C/C(=O)NC[C@@H](Cc2ccccc2)NS(=O)(=O)c2ccc(Br)cc2)c1`: the IC50 on Cathepsin S [1] is 41 µM; at Cathepsin B, > 100 µM; on Cathepsin K, > 100 µM; against Procathepsin L [2], 23.9 µM.
In the case of `N#Cc1ccccc1N1CCN(C[C@@H](O)COC[C@@H](Cc2ccccc2)NS(=O)(=O)c2ccc(C(F)(F)F)cc2)CC1`, the half-inhibitory concentration (IC50) is 22.3 µM against Cathepsin S [1], > 100 µM against Cathepsin B, > 100 µM against Cathepsin K and 10.5 µM at Procathepsin L [2].
For `N#Cc1ccccc1N1CCN(C[C@@H](O)COC[C@H](Cc2ccccc2)NS(=O)(=O)c2ccc(C(F)(F)F)cc2)CC1`, the IC50 on Cathepsin S [1] is 29.2 µM; against Cathepsin B it was > 100 µM; on Cathepsin K it was > 100 µM; against Procathepsin L [2], 45.9 µM.
With `N#Cc1ccccc1N1CCN(C[C@H](O)COC[C@H](Cc2ccccc2)NS(=O)(=O)c2ccc(Br)cc2)CC1`, the IC50 is 7.72 µM at Cathepsin S [1], > 100 µM against Cathepsin B, > 100 µM at Cathepsin K and 8.53 µM at Procathepsin L [2].
Regarding `COc1cccc(/C=C/C(=O)NC[C@H](Cc2ccccc2)NS(=O)(=O)c2ccc(C(F)(F)F)cc2)c1`, the IC50 on Cathepsin S [1], at Cathepsin B, at Cathepsin K and against Procathepsin L [2] was > 100 µM in each case.
`N#Cc1ccccc1N1CCN(C[C@H](O)COC[C@@H](Cc2ccccc2)NS(=O)(=O)c2ccc(Br)cc2)CC1`: the IC50 is 4.38 µM against Cathepsin S [1], > 100 µM against Cathepsin B, > 100 µM against Cathepsin K and 7.5 µM on Procathepsin L [2].
For `N#Cc1ccccc1N1CCN(C[C@H](O)COC[C@@H](Cc2ccccc2)NC(=O)c2ccncc2)CC1`, the IC50 on Cathepsin S [1] is 23.1 µM; on Cathepsin B it was > 100 µM; against Cathepsin K, > 100 µM; at Procathepsin L [2], 46.2 µM.
As to `COc1cccc(/C=C/C(=O)NC[C@@H](Cc2ccccc2)NS(=O)(=O)c2ccc(C(F)(F)F)cc2)c1`, the IC50 was 64.5 µM on Cathepsin S [1], > 100 µM against Cathepsin B, > 100 µM against Cathepsin K and 51.7 µM on Procathepsin L [2].
For the molecule `N#Cc1ccccc1N1CCN(C[C@H](O)COC[C@H](Cc2ccccc2)NC(=O)c2ccncc2)CC1`, the IC50 is 16.1 µM at Cathepsin S [1], > 100 µM against Cathepsin B, > 100 µM at Cathepsin K and 9.37 µM on Procathepsin L [2].
For the molecule `N#Cc1ccccc1N1CCN(C[C@@H](O)COC[C@@H](Cc2ccccc2)NC(=O)c2ccncc2)CC1`, the IC50 against Cathepsin S [1] is 48.9 µM; against Cathepsin B, > 100 µM; at Cathepsin K, > 100 µM; on Procathepsin L [2], 29.8 µM.
Turning to `N#Cc1ccccc1N1CCN(C[C@H](O)COC[C@@H](Cc2ccccc2)NS(=O)(=O)c2ccc(C(F)(F)F)cc2)CC1`, the IC50 against Cathepsin S [1] was 40.4 µM; against Cathepsin B, > 100 µM; at Cathepsin K it was > 100 µM; at Procathepsin L [2], 40.7 µM.
With `N#Cc1ccccc1N1CCN(C[C@H](O)COC[C@H](Cc2ccccc2)NS(=O)(=O)c2ccc(C(F)(F)F)cc2)CC1`, the IC50 against Cathepsin S [1] was 30.7 µM; against Cathepsin B, > 100 µM; on Cathepsin K it was > 100 µM; against Procathepsin L [2] it was 41.1 µM.
For `COc1ccc(/C=C/C(=O)NC[C@H](Cc2ccccc2)NS(=O)(=O)c2ccc(C(F)(F)F)cc2)cc1OC`, the concentration for half-maximal inhibition (IC50) at Cathepsin S [1], on Cathepsin B, on Cathepsin K and against Procathepsin L [2] was > 100 µM each time.
On to `COc1ccc(/C=C/C(=O)NC[C@H](Cc2ccccc2)NS(=O)(=O)c2ccc(Br)cc2)cc1OC`, for which the 50% inhibitory concentration (IC50) at Cathepsin S [1], at Cathepsin B, at Cathepsin K and at Procathepsin L [2] was > 100 µM in each case.
Consider `N#Cc1ccccc1N1CCN(C[C@@H](O)COC[C@H](Cc2ccccc2)NS(=O)(=O)c2ccc(Br)cc2)CC1`, for which the IC50 against Cathepsin S [1] was 5.46 µM; against Cathepsin B, > 100 µM; against Cathepsin K, > 100 µM; at Procathepsin L [2] it was 5.47 µM.
For the molecule `O=C(OC[C@@H](Cc1ccccc1)NS(=O)(=O)c1ccc(Br)cc1)[C@@H](Cc1ccccc1)NS(=O)(=O)c1ccccc1`, the IC50 at Cathepsin S [1] was 5.02 µM; against Cathepsin B it was > 100 µM; on Cathepsin K it was > 100 µM; on Procathepsin L [2], 6.03 µM.
For `N#Cc1ccccc1N1CCN(C[C@@H](O)COC[C@@H](Cc2ccccc2)NC(=O)C2CCN(C(=O)OCc3ccccc3)CC2)CC1`, the IC50 on Cathepsin S [1], on Cathepsin B, against Cathepsin K and on Procathepsin L [2] was > 100 µM in each case.
Regarding `COc1cccc(/C=C/C(=O)NC[C@H](Cc2ccccc2)NS(=O)(=O)c2ccc(Br)cc2)c1`, the IC50 at Cathepsin S [1], on Cathepsin B, at Cathepsin K and at Procathepsin L [2] was > 100 µM throughout.
As to `N#Cc1ccccc1N1CCN(C[C@H](O)COC[C@H](Cc2ccccc2)NC(=O)C2CCN(C(=O)OCc3ccccc3)CC2)CC1`, the IC50 is 11.1 µM against Cathepsin S [1], > 100 µM against Cathepsin B, > 100 µM on Cathepsin K and 14.5 µM against Procathepsin L [2].
Regarding `N#Cc1ccccc1N1CCN(C[C@H](O)COC[C@@H](Cc2ccccc2)NC(=O)C2CCN(C(=O)OCc3ccccc3)CC2)CC1`, the IC50 at Cathepsin S [1], against Cathepsin B, on Cathepsin K and against Procathepsin L [2] was > 100 µM in each case.
Turning to `N#Cc1ccccc1N1CCN(C[C@@H](O)COC[C@@H](Cc2ccccc2)NS(=O)(=O)c2ccc(Br)cc2)CC1`, the Activity with PANC-1 [3] is 100%; with PANC-1 [4], “Dose-Dependent Effect”; in the test with BXPC-3 [5], “Dose-Dependent Effect”; with PANC-1 [7], “Dose-Dependent Effect”; with BXPC-3 [10], 100%; in the test on BXPC-3 [13], “Dose-Dependent Effect”. Further, the IC50 was 1.79 µM on Cathepsin S [1], > 100 µM against Cathepsin B, > 100 µM against Cathepsin K and 4.1 µM at Procathepsin L [2]. In addition, the inhibition entry at Procathepsin L [6], at Cathepsin S [8], on Cathepsin S [9] and on Procathepsin L [11] was “Dose-Dependent Effect” in each case. The result with PANC-1 [12] and with BXPC-3 [14] was inactive.
As to `COc1ccc(/C=C/C(=O)NC[C@@H](Cc2ccccc2)NS(=O)(=O)c2ccc(Br)cc2)cc1OC`, the IC50 against Cathepsin S [1], against Cathepsin B, at Cathepsin K and against Procathepsin L [2] was > 100 µM in each case.
Consider `COc1ccc(/C=C/C(=O)NC[C@@H](Cc2ccccc2)NS(=O)(=O)c2ccc(C(F)(F)F)cc2)cc1OC`, for which the concentration for half-maximal inhibition (IC50) against Cathepsin S [1] is 21.2 µM; against Cathepsin B, > 100 µM; against Cathepsin K, > 100 µM; on Procathepsin L [2] it was 12.3 µM.
In the case of `N#Cc1ccccc1N1CCN(C[C@@H](O)COC[C@H](Cc2ccccc2)NC(=O)C2CCN(C(=O)OCc3ccccc3)CC2)CC1`, the IC50 at Cathepsin S [1] is 22.7 µM; against Cathepsin B it was > 100 µM; at Cathepsin K, > 100 µM; on Procathepsin L [2], 19.5 µM.
Turning to `N#Cc1ccccc1N1CCN(C[C@@H](O)COC[C@H](Cc2ccccc2)NC(=O)c2ccncc2)CC1`, the IC50 at Cathepsin S [1] was 28.8 µM; on Cathepsin B it was > 100 µM; at Cathepsin K it was > 100 µM; on Procathepsin L [2] it was 18.6 µM.

(Values after ChEMBL document CHEMBL5236605, “Design and synthesis of dual cathepsin L and S inhibitors and antimetastatic activity evaluation in pancreatic cancer cells” (Bioorg Med Chem Lett, 2023).)
